Earlier results in patent US10927398B2, “Compositions for CYP450 phenotyping using saliva samples” (Concordia University, Inc., priority 2015, dated 2021).
Like-named read-outs stand apart in the source and are kept apart here.

Assays:
[1] = cited from earlier work
plasma protein = conditions: cited from earlier work
[2] = cited from earlier work; remark: listed apart in the source
[3] = Table of Exemplary Drugs, CYP3A4
[4] = Table of Exemplary Drugs, CYP2C19
[5] = Table of Exemplary Drugs, CYP1A2
[6] = Table of Exemplary Drugs, CYP2D6

O=C1CCc2cc(OCCCCc3nnnn3C3CCCCC3)ccc2N1 [Cilostazol (Pletal), Cilostazol]
ORAL BIOAVAILABILITY [1, 3]: 87-100% | PLASMA PROTEIN BINDING (plasma protein; [3]): 95-98% ^ | HALF-LIFE [2, 3]: 11 to 13 h

COc1cc(N)c(Cl)cc1C(=O)NC1CCN(CCCOc2ccc(F)cc2)CC1OC (centres unmarked) [Cisapride (Propulsid), Cisapride]
ORAL BIOAVAILABILITY [1, 3]: 35-65% | PLASMA PROTEIN BINDING (plasma protein; [3]): 98% | HALF-LIFE [2, 3]: 6 to 12 h

CN(C)CCCC1(c2ccc(F)cc2)OCc2cc(C#N)ccc21 (centres unmarked) [Citalopram]
ORAL BIOAVAILABILITY [1, 4]: 80% | PLASMA PROTEIN BINDING (plasma protein; [4]): 80% | HALF-LIFE [2, 4]: 35 h

CC[C@H]1OC(=O)[C@H](C)[C@@H](O[C@H]2C[C@@](C)(OC)[C@@H](O)[C@H](C)O2)[C@H](C)[C@@H](O[C@@H]2O[C@H](C)C[C@H](N(C)C)[C@H]2O)[C@](C)(OC)C[C@@H](C)C(=O)[C@H](C)[C@@H](O)[C@]1(C)O [Clarithromycin (Biaxin), Clarithromycin]
ORAL BIOAVAILABILITY [1, 3]: 55% | PLASMA PROTEIN BINDING (plasma protein; [3]): Low | HALF-LIFE [2, 3]: 4 h

COC(=O)[C@H](c1ccccc1Cl)N1CCc2sccc2C1 [Clopidogrel]
ORAL BIOAVAILABILITY [1, 4]: >50% | ORAL BIOAVAILABILITY [1, 3]: >50% | PLASMA PROTEIN BINDING (plasma protein; [4]): 98% | PLASMA PROTEIN BINDING (plasma protein; [3]): 94-98% ^ | HALF-LIFE [2, 3]: 6 h

CN1CCN(C2=Nc3cc(Cl)ccc3Nc3ccccc32)CC1 [Clozapine]
ORAL BIOAVAILABILITY [1, 5]: 12-81% | PLASMA PROTEIN BINDING (plasma protein; [5]): 97% | HALF-LIFE [2, 5]: 4 to 66 h

COc1ccc2c3c1O[C@H]1[C@@H](O)C=C[C@H]4[C@@H](C2)N(C)CC[C@@]341 [Codeine]
ORAL BIOAVAILABILITY ([1]; in vivo, po): 90% | PLASMA PROTEIN BINDING (plasma protein; [6]): 7-25%^ | HALF-LIFE ([2]; in vivo): 2.5 to 3 h

CN(C)CCC=C1c2ccccc2C=Cc2ccccc21 [Cyclobenzaprine]
ORAL BIOAVAILABILITY [1, 5]: 33-55% | PLASMA PROTEIN BINDING (plasma protein; [5]): 93% | HALF-LIFE [2, 5]: 8 to 37 h

CC(C)Nc1cccnc1N1CCN(C(=O)c2cc3cc(NS(C)(=O)=O)ccc3[nH]2)CC1 [Delavirdine (Rescriptor), Delavirdine]
ORAL BIOAVAILABILITY [1, 3]: 85% | PLASMA PROTEIN BINDING (plasma protein; [3]): 98% | HALF-LIFE [2, 3]: 5.8 h

CCN[C@@H](C)Cc1cccc(C(F)(F)F)c1 [Dexfenfluramine]
ORAL BIOAVAILABILITY ([1]; in vivo, po): 68% | PLASMA PROTEIN BINDING (plasma protein; [6]): 36% | HALF-LIFE ([2]; in vivo): 17 to 20 h

CN1C[C@H](C(=O)N[C@]2(C)O[C@@]3(O)[C@@H]4CCCN4C(=O)[C@H](Cc4ccccc4)N3C2=O)C[C@@H]2c3cccc4[nH]cc(c34)C[C@H]21 [Dihydroergotamine]
ORAL BIOAVAILABILITY ([1]; in vivo, po): <32% | PLASMA PROTEIN BINDING (plasma protein; plasma): 93% | HALF-LIFE ([2]; in vivo): 9 to 10 h

COc1ccc([C@@H]2Sc3ccccc3N(CCN(C)C)C(=O)[C@@H]2OC(C)=O)cc1 [Diltiazem (Cardizem), Diltiazem]
ORAL BIOAVAILABILITY [1, 3]: >40% | PLASMA PROTEIN BINDING (plasma protein; [3]): 70-80% ^ | HALF-LIFE [2, 3]: 3 to 6 h

CC(C)N(CCC(C(N)=O)(c1ccccc1)c1ccccn1)C(C)C (centres unmarked) [Disopyramide (Norpace), Disopyramide]
ORAL BIOAVAILABILITY [1, 3]: 80% | PLASMA PROTEIN BINDING (plasma protein; [3]): 50-65% ^ | HALF-LIFE [2, 3]: 6.7 h

COc1cccc2c1C(=O)c1c(O)c3c(c(O)c1C2=O)C[C@@](O)(C(=O)CO)C[C@@H]3O[C@H]1C[C@H](N)[C@H](O)[C@H](C)O1 [Doxorubicin (Adriamycin), Doxorubicin]
ORAL BIOAVAILABILITY [1, 3]: 5% | PLASMA PROTEIN BINDING (plasma protein; [3]): 74-76% ^ | HALF-LIFE [2, 3]: 20 to 48 h

CNCC[C@H](Oc1cccc2ccccc12)c1cccs1 [Duloxetine]
ORAL BIOAVAILABILITY [1, 6]: 30-80% | PLASMA PROTEIN BINDING (plasma protein; [6]): >90% | HALF-LIFE ([2]; in vivo): 12 h

C[C@]12C=CC(=O)N[C@@H]1CC[C@@H]1[C@@H]2CC[C@]2(C)[C@@H](C(=O)Nc3cc(C(F)(F)F)ccc3C(F)(F)F)CC[C@@H]12 [Dutasteride (Avodart), Dutasteride]
ORAL BIOAVAILABILITY [1, 3]: 60% | PLASMA PROTEIN BINDING (plasma protein; [3]): 99% | HALF-LIFE [2, 3]: 5 weeks

CC(C)(C)c1ccc(C(=O)CCCN2CCC(OC(c3ccccc3)c3ccccc3)CC2)cc1 [Ebastine (Kestine), Ebastine]
ORAL BIOAVAILABILITY [1, 3]: “High” | PLASMA PROTEIN BINDING (plasma protein; [3]): 98% | HALF-LIFE [2, 3]: 24.8 h
